From patent publication US7312358B2, “Pharmaceutically active sulfanilide derivatives” (Laboratoires Serono SA, priority 2000, dated 2007)
pIC50, pKi: −log10 of the molar value.

Tests used:
hOT-R = molecular target: T1, hOT-R (Homo sapiens, UniProt P30559); assay: Inhibition of oxytocin mediated Ca2+-mobilization by FLIPR (HEK cells); type: cell-based; conditions: fluo-4, OT 40 nM
T1 construct: expressed in transfected cells; host or cells: HEK (Human Embryonic Kidney) cells
T1 sequence (P30559 1-389): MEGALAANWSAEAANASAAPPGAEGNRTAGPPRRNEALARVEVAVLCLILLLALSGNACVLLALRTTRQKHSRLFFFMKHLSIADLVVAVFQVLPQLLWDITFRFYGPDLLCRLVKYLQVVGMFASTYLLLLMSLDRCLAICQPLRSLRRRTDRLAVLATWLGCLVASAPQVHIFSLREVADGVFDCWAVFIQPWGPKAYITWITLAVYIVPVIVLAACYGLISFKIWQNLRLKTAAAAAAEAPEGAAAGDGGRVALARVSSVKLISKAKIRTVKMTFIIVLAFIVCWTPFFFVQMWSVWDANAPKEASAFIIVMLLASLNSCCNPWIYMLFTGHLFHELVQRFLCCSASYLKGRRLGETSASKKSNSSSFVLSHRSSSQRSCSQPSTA
How it was run: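 HEK cells loaded with fluo-4 for 1.5–2 h; antagonist added at 10 pM–30 μM in HEPES-buffered saline, pH 7.4, then stimulated with 40 nM oxytocin. Intracellular Ca2+ mobilization read as fluorescence on FLIPR.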

hV1a = hV1a (Homo sapiens, UniProt P37288); assay: In vitro competition binding assay on hV1a receptor with scintillating proximity assay; parameters: expressed in transfected cells; host or cells: CHO cells (membranes); conditions: membranes from CHO cells expressing hV1a receptor; radiolabel [125I]-LVA; SPA; read-out: Binding Affinity Human V1a Ki
Description: b) In Vitro Competition Binding Assay on hV1a Receptor with Scintillating Proximity Assay
This assays allows to determine the affinity of the test compounds for the V1a receptor. Membranes from CHO cells expressing the hV1a receptor were resuspended in buffer containing 50 mM Tris-HCl, pH 7.4, 5 mM MgCl2 and 0.1% BSA (w/v). The membranes (5-10 μg) were mixed with 0.2 mg wheat-germ aglutinin (WGA) SPA bead (type A) and 0.03 nM of the radiolabel [^125I]-LVA (LVA being Linear Vasopressin Antagonist and is an analogue of AVP for competition binding experiments). Non-specific binding was determined in the presence of 1 μM AVP. The total assay volume was 100 μl. The plates (Corning 0 NBS plate) were incubated at room temperature for 2 hours and counted on a Mibrobeta plate counter. The tests compounds were used in concentrations of 30 μM, 10 μM, 1 μM, 300 nM, 100 nM, 10 nM, 1 nM, 100 pM, 10 pM. The competition binding data were analysed using the iterative, nonlinear, curve-fitting program, Graph pad “Prism”.
The binding affinities to the Via receptor of the sulfanilide derivatives claimed in the formula I were assessed using the above described in vitro biological assay. The values refer to the binding affinity (IC50; HM) of the example compounds according to formula I to the V1a receptor. From the values shown in Table 1 it can be derived that said test compounds according to formula I do show a significant binding to the Via receptor.

Chain of hV1a (P37288 whole entry): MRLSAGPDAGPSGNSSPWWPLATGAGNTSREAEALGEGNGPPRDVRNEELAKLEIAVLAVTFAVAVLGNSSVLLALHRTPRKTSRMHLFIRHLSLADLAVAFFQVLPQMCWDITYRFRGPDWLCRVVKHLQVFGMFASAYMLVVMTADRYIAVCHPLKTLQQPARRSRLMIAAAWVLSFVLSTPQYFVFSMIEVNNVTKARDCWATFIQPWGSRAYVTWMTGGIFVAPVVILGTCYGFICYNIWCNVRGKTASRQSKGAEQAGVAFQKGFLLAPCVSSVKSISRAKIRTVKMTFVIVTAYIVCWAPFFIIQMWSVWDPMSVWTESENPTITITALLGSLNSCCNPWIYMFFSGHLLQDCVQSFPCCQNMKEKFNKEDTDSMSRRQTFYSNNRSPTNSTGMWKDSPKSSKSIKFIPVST

In the case of `CCOc1ccc(S(=O)(=O)N(CC(=O)N/N=C2/C(=O)Nc3ccccc32)c2ccc(C)cc2)cc1` [Example 5, 4-ethoxy-N-(4-methylphenyl)-N-{2-oxo-2-[2-(2-oxo-1,2-dihydro-3H-indol-3-ylidene)hydrazino]ethyl}benzenesulfonamide], the pIC50 (hOT-R) was 7.26 and the pKi (hV1a) was 6.12.
